# Measured values as given in the kinase profiling compilation of Christmann-Franck et al. (2016).
# Legend:
# Assay in all cases: radiometric filter-binding kinase assay, Kinase HotSpot
# Settings in all cases: compound 0.5 µM; ATP 10 µM
# ABL2 (human) = ABL2 (human) (UniProt P42684)
# ACVRL1 (human) = ACVRL1 (human) (UniProt P37023)
# AKT1 (human) = AKT1 (human) (UniProt P31749)
# AURKB (human) = AURKB (human) (UniProt Q96GD4)
# BRSK2 (human) = BRSK2 (human) (UniProt Q8IWQ3)
# CDK1 CCNA2 (human) = CDK1 CCNA2 (human) (UniProt P06493+P20248)
# CDK2 CCNE1 (human) = CDK2 CCNE1 (human) (UniProt P24941+P24864)
# CDK9 CCNT1 (human) = CDK9 CCNT1 (human) (UniProt P50750+O60563)
# CLK4 (human) = CLK4 (human) (UniProt Q9HAZ1)
# CSNK1A1 (human) = CSNK1A1 (human) (UniProt P48729)
# CSNK1E (human) = CSNK1E (human) (UniProt P49674)
# CSNK1G3 (human) = CSNK1G3 (human) (UniProt Q9Y6M4)
# CSNK2A2 (human) = CSNK2A2 (human) (UniProt P19784)
# EPHA2 (human) = EPHA2 (human) (UniProt P29317)
# EPHB1 (human) = EPHB1 (human) (UniProt P54762)
# FLT1 (human) = FLT1 (human) (UniProt P17948)
# FLT3 (human) = FLT3 (human) (UniProt P36888)
# GRK5 (human) = GRK5 (human) (UniProt P34947)
# GRK7 (human) = GRK7 (human) (UniProt Q8WTQ7)
# HIPK3 (human) = HIPK3 (human) (UniProt Q9H422)
# HIPK4 (human) = HIPK4 (human) (UniProt Q8NE63)
# KDR (human) = KDR (human) (UniProt P35968)
# KIT (human) = KIT (human) (UniProt P10721)
# MAPK9 (human) = MAPK9 (human) (UniProt P45984)
# MAPKAPK5 (human) = MAPKAPK5 (human) (UniProt Q8IW41)
# MARK2 (human) = MARK2 (human) (UniProt Q7KZI7)
# MERTK (human) = MERTK (human) (UniProt Q12866)
# MYLK (human) = MYLK (human) (UniProt Q15746)
# NEK2 (human) = NEK2 (human) (UniProt P51955)
# NLK (human) = NLK (human) (UniProt Q9UBE8)
# NTRK3 (human) = NTRK3 (human) (UniProt Q16288)
# NUAK1 (human) = NUAK1 (human) (UniProt O60285)
# PIM1 (human) = PIM1 (human) (UniProt P11309)
# PRKACA (human) = PRKACA (human) (UniProt P17612)
# PRKCB2 (human) = PRKCB2 (human) (UniProt P05771)
# PRKCG (human) = PRKCG (human) (UniProt P05129)
# ROCK2 (human) = ROCK2 (human) (UniProt O75116)
# SRPK3 (human) = SRPK3 (human) (UniProt Q9UPE1)
# STK24 (human) = STK24 (human) (UniProt Q9Y6E0)
# STK4 (human) = STK4 (human) (UniProt Q13043)
# TNK2 (human) = TNK2 (human) (UniProt Q07912)
# WNK3 (human) = WNK3 (human) (UniProt Q9BYP7)
# Chain of AURKB (human) (Q96GD4 whole entry, looked up): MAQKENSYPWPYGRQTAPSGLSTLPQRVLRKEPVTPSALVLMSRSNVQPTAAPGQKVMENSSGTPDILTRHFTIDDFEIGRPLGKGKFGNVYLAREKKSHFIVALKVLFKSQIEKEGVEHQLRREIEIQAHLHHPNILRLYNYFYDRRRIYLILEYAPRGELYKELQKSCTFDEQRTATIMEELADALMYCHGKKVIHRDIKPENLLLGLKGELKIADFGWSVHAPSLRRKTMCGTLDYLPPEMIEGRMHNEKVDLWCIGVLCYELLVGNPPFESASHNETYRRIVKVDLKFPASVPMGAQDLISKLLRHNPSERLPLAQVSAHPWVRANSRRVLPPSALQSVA
# Chain of CLK4 (human) (Q9HAZ1 whole entry, looked up): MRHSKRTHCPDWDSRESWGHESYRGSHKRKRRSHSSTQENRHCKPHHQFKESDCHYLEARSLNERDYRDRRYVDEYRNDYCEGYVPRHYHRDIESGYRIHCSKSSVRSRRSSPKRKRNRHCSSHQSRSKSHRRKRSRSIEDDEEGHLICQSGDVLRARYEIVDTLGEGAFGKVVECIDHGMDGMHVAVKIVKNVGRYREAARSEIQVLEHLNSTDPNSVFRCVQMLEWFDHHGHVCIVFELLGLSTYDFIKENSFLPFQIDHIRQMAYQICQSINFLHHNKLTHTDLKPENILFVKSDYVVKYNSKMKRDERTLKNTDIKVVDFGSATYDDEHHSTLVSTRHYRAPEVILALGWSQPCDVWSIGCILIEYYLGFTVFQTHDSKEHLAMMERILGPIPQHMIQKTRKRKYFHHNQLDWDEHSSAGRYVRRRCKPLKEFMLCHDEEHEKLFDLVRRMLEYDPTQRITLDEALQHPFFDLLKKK
# Chain of MYLK (human) (Q15746 whole entry, looked up): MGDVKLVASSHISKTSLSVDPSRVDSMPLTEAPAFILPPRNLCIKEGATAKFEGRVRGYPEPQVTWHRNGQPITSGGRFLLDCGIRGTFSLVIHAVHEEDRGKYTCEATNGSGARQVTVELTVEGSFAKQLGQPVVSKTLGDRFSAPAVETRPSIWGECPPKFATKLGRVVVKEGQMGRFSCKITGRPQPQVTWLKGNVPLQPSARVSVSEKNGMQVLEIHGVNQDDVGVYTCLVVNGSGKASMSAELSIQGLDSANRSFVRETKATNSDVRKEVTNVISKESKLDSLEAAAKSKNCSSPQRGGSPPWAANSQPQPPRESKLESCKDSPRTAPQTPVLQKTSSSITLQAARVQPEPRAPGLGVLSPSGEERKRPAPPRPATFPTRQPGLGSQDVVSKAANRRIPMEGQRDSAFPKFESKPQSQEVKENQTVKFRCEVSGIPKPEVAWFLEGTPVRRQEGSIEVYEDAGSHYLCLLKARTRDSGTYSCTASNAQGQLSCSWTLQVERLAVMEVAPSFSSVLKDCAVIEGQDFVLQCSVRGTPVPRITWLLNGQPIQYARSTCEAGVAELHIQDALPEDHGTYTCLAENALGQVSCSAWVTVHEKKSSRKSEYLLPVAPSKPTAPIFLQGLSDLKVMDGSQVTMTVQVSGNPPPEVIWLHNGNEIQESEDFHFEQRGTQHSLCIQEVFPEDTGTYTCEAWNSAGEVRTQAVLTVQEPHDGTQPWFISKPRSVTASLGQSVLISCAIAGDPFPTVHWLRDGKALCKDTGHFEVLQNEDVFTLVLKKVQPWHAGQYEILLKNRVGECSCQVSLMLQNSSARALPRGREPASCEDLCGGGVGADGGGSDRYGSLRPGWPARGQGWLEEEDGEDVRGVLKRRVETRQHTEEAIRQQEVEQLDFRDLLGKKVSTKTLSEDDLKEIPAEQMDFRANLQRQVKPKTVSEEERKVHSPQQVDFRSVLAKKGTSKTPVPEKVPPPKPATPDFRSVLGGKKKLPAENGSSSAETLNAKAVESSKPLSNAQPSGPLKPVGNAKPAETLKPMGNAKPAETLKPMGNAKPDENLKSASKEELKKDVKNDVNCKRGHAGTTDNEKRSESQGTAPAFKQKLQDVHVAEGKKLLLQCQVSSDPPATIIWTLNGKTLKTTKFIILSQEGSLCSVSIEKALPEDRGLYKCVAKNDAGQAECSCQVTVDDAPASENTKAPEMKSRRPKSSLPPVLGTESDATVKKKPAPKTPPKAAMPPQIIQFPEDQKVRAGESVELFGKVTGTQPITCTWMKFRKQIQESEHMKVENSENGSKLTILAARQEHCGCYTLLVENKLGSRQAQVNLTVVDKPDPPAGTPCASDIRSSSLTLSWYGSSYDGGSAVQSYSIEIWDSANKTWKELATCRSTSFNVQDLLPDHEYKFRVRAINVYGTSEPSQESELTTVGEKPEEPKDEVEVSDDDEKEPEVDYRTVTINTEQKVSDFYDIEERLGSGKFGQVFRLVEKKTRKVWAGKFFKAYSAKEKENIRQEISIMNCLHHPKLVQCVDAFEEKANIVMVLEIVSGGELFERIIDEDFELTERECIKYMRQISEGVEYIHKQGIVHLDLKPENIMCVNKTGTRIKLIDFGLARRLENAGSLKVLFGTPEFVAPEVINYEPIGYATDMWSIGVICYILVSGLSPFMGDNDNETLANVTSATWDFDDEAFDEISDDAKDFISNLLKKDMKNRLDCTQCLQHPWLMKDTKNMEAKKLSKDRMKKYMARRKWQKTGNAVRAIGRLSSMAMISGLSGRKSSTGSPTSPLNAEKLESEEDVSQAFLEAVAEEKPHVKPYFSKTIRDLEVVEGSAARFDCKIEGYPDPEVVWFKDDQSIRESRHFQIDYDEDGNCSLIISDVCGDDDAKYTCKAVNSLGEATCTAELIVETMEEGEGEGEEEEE
# Chain of CSNK2A2 (human) (P19784 whole entry, looked up): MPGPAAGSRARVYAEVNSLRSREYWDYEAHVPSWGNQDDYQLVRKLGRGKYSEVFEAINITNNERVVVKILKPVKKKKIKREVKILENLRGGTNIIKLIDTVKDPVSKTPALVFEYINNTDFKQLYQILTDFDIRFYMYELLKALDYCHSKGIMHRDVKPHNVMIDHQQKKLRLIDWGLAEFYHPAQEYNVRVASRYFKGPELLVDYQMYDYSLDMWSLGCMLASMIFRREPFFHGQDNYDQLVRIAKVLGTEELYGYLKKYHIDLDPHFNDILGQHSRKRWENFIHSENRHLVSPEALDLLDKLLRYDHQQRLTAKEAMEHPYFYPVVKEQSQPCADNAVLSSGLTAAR
# Chain of SRPK3 (human) (Q9UPE1 whole entry, looked up): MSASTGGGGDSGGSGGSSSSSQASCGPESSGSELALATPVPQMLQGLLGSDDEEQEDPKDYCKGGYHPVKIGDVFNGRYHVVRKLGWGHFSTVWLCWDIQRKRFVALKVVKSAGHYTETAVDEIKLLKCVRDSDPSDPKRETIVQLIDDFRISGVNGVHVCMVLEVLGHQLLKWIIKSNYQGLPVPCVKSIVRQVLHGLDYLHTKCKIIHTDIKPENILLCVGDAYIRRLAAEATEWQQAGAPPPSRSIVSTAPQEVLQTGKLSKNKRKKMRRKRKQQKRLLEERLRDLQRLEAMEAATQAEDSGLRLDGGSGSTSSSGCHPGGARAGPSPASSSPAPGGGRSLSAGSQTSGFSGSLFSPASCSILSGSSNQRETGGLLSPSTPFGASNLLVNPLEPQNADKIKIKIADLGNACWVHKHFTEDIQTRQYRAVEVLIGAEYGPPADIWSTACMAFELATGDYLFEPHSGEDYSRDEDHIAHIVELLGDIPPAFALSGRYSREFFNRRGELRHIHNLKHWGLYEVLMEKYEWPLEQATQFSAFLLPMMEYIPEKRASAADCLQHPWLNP
# Chain of CSNK1G3 (human) (Q9Y6M4 whole entry, looked up): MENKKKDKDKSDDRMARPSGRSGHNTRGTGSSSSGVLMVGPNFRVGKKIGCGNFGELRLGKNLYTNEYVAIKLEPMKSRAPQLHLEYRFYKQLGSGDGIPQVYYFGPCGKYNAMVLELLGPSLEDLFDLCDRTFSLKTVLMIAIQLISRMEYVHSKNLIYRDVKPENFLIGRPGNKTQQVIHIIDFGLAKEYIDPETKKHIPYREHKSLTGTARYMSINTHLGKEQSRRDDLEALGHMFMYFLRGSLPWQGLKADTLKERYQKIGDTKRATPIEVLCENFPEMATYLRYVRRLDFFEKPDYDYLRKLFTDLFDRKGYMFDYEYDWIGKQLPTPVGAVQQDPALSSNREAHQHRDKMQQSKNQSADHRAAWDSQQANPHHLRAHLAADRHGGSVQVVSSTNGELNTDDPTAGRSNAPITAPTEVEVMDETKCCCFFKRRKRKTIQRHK
smiles,measurement,setting,value
O=C1NC(=O)/C(=C/c2ccc3c(c2)OC(F)(F)O3)S1,residual activity,ABL2 (human),96%
same,residual activity,ACVRL1 (human),97.1%
same,residual activity,AKT1 (human),98.2%
same,residual activity,AURKB (human),102%
same,residual activity,BRSK2 (human),90.9%
same,residual activity,CDK1 CCNA2 (human),97.2%
same,residual activity,CDK2 CCNE1 (human),89.9%
same,residual activity,CDK9 CCNT1 (human),98.7%
same,residual activity,CLK4 (human),88.8%
same,residual activity,CSNK1A1 (human),88.4%
same,residual activity,CSNK1E (human),96.9%
same,residual activity,CSNK1G3 (human),91.4%
same,residual activity,CSNK2A2 (human),29.9%
same,residual activity,EPHA2 (human),96.3%
same,residual activity,EPHB1 (human),95.6%
same,residual activity,FLT1 (human),81.5%
same,residual activity,FLT3 (human),92.9%
same,residual activity,GRK5 (human),105%
same,residual activity,GRK7 (human),102%
same,residual activity,HIPK3 (human),90.1%
same,residual activity,HIPK4 (human),99.4%
same,residual activity,KDR (human),94.6%
same,residual activity,KIT (human),93.4%
same,residual activity,MAPK9 (human),90.9%
same,residual activity,MAPKAPK5 (human),98.2%
same,residual activity,MARK2 (human),96.8%
same,residual activity,MERTK (human),94.5%
same,residual activity,MYLK (human),99.4%
same,residual activity,NEK2 (human),98.9%
same,residual activity,NLK (human),93.8%
same,residual activity,NTRK3 (human),98%
same,residual activity,NUAK1 (human),91.8%
same,residual activity,PIM1 (human),35.9%
same,residual activity,PRKACA (human),101%
same,residual activity,PRKCB2 (human),97.6%
same,residual activity,PRKCG (human),101%
same,residual activity,ROCK2 (human),92.4%
same,residual activity,SRPK3 (human),95.4%
same,residual activity,STK24 (human),91.9%
same,residual activity,STK4 (human),93.3%
same,residual activity,TNK2 (human),93.3%
same,residual activity,WNK3 (human),91.5%
O=C(Nc1cccc(Nc2nccc(Nc3cccc(C(F)(F)F)c3)n2)c1)C1CC1,residual activity,ABL2 (human),83.8%
same,residual activity,ACVRL1 (human),84.6%
same,residual activity,AKT1 (human),109%
same,residual activity,AURKB (human),72.8%
same,residual activity,BRSK2 (human),89.3%
same,residual activity,CDK1 CCNA2 (human),95.9%
same,residual activity,CDK2 CCNE1 (human),85.1%
same,residual activity,CDK9 CCNT1 (human),86.8%
same,residual activity,CLK4 (human),84.3%
same,residual activity,CSNK1A1 (human),95.8%
same,residual activity,CSNK1E (human),110%
same,residual activity,CSNK1G3 (human),93.5%
same,residual activity,CSNK2A2 (human),95.4%
same,residual activity,EPHA2 (human),87.3%
same,residual activity,EPHB1 (human),85.6%
same,residual activity,FLT1 (human),97%
same,residual activity,FLT3 (human),73.1%
same,residual activity,GRK5 (human),104%
same,residual activity,GRK7 (human),101%
same,residual activity,HIPK3 (human),104%
same,residual activity,HIPK4 (human),111%
same,residual activity,KDR (human),91.6%
same,residual activity,KIT (human),86.1%
same,residual activity,MAPK9 (human),98.7%
same,residual activity,MAPKAPK5 (human),91.9%
same,residual activity,MARK2 (human),97%
same,residual activity,MERTK (human),90.1%
same,residual activity,MYLK (human),90%
same,residual activity,NEK2 (human),95.3%
same,residual activity,NLK (human),101%
same,residual activity,NTRK3 (human),77.3%
same,residual activity,NUAK1 (human),67.2%
same,residual activity,PIM1 (human),103%
same,residual activity,PRKACA (human),91.7%
same,residual activity,PRKCB2 (human),98%
same,residual activity,PRKCG (human),90.9%
same,residual activity,ROCK2 (human),105%
same,residual activity,SRPK3 (human),101%
same,residual activity,STK24 (human),98.3%
same,residual activity,STK4 (human),83.1%
same,residual activity,TNK2 (human),66.5%
same,residual activity,WNK3 (human),105%
c1ccc(-c2n[nH]c3c2oc2ccccc23)cc1,residual activity,ABL2 (human),86.7%
same,residual activity,ACVRL1 (human),111%
same,residual activity,AKT1 (human),86.9%
same,residual activity,AURKB (human),50.8%
same,residual activity,BRSK2 (human),101%
same,residual activity,CDK1 CCNA2 (human),94.1%
same,residual activity,CDK2 CCNE1 (human),95.6%
same,residual activity,CDK9 CCNT1 (human),83.9%
same,residual activity,CLK4 (human),98.9%
same,residual activity,CSNK1A1 (human),73.8%
same,residual activity,CSNK1E (human),91.8%
same,residual activity,CSNK1G3 (human),88.5%
same,residual activity,CSNK2A2 (human),85.6%
same,residual activity,EPHA2 (human),105%
same,residual activity,EPHB1 (human),103%
same,residual activity,FLT1 (human),94.5%
same,residual activity,FLT3 (human),12.1%
same,residual activity,GRK5 (human),123%
same,residual activity,GRK7 (human),102%
same,residual activity,HIPK3 (human),80.7%
same,residual activity,HIPK4 (human),103%
same,residual activity,KDR (human),107%
same,residual activity,KIT (human),38%
same,residual activity,MAPK9 (human),96.5%
same,residual activity,MAPKAPK5 (human),103%
same,residual activity,MARK2 (human),92.9%
same,residual activity,MERTK (human),80%
same,residual activity,MYLK (human),86.1%
same,residual activity,NEK2 (human),99.8%
same,residual activity,NLK (human),92.3%
same,residual activity,NTRK3 (human),42.7%
same,residual activity,NUAK1 (human),96.2%
same,residual activity,PIM1 (human),83.3%
same,residual activity,PRKACA (human),97.5%
same,residual activity,PRKCB2 (human),113%
same,residual activity,PRKCG (human),99.9%
same,residual activity,ROCK2 (human),87.3%
same,residual activity,SRPK3 (human),94.5%
same,residual activity,STK24 (human),75.3%
same,residual activity,STK4 (human),99.8%
same,residual activity,TNK2 (human),85.8%
same,residual activity,WNK3 (human),91.5%
